In patent US20080254986A1, “Use of piperonyl butoxide to protect plants” (priority 2007, published 2008):

What was measured:
Type in all cases: in vivo
[1] = tested on: cotton; assay: Stomatal conductance of cotton plants after drench application; conditions: for Reduction of stomatal conductance: drench 50 ppm ABA
Experimental: Cotton was planted and grown at 25° C. under a 16:8 photoperiod for 14 days. After two weeks, plants were moved to the greenhouse (25±2° C., 16:8 photoperiod) for an additional three weeks before treatment. […] Transpiration rate of each treatment was calculated as the percentage of that of control at each day to eliminate day-to-day variation caused by changes of environmental condition such as light intensity and temperature. In cotton, ABA, PBO and the combination were applied to evaluate the effect on stomatol conductance. A decrease in stomatal aperture, reflected in the conductance measures, is an immediate and direct effect of applied ABA (Finkelstein and Rock, 2002).

[2] = tested on: Pansy; assay: Marketability of Pansy after sprays
Experimental: (§1) Ornamental Plants were purchased from local greenhouse retail outlets and allowed to equilibrate to greenhouse conditions for a minimum of 48 hours before experiments were performed.
(§2) To quantify resistance of plants to wilting, a wilt index was developed. The wilt index uses numerical values of 1-4 (1=no wilt, 4=completely wilted and loss of turgor) to express wilt status. A wilt index was determined for each individual plant assessed daily. When the wilt index was equal to or exceeded 2.5, the plant was considered not salable, and the last day prior to that was considered its last marketable day
To determine if the ABA, PBO, or the combination of ABA and PBO is effective at increasing marketable life of other ornamental plants, Pansy plants were used. All applications were made by spray to fully hydrated plants. Solutions were applied as soon as possible after mixing. All spray applications contained Tween 20 at 0.05% (v/v). Plants were held in a greenhouse without further irrigation.

[3] = tested on: cotton; assay: Stomatal conductance of cotton plants after spray application
Experimental: Cotton was planted and grown at 25° C. under a 16:8 photoperiod for 14 days. After two weeks, plants were moved to the greenhouse (25±2° C., 16:8 photoperiod) for an additional three weeks before treatment.
[…] Transpiration rate of each treatment was calculated as the percentage of that of control at each day to eliminate day-to-day variation caused by changes of environmental condition such as light intensity and temperature.
In cotton, ABA, PBO and the combination were applied to evaluate the effect on stomatol conductance. A decrease in stomatal aperture, reflected in the conductance measures, is an immediate and direct effect of applied ABA (Finkelstein and Rock, 2002).

[4] = tested on: Impatiens plants; assay: Marketability of Impatiens plants, ABA drench and PBO foliar spray
Experimental: as §1, §2
To better determine the effectiveness of PBO on ABA effectiveness, a spatial separation in application methodology was used. That is, water or ABA were drench applied at 10% of the pot volume, followed by a spray application to the foliage of Tween 20 (0.05%) in water, either alone, or in combination with 1000 ppm PBO.
In Table 6, the rate of ABA in the drench application is varied in order to determine the effect of PBO sprays on ABA rate.

[5] = tested on: Impatiens plants; assay: Wilt index of Impatiens plants after spray application
Experimental: as §1, §2
In the ornamental plant Impatiens, spray applications were made to evaluate the effects of ABA, PBO or the combination to increase the number of days until the plants wilted. Using a wilt index of 1-4 (1=no wilt, 4=completely wilted and loss of turgor), plants were evaluated following spray application.

[6] = tested on: Viola (Violet); assay: Marketability of Viola (Violet) after sprays
Experimental: as §1, §2
To determine if the combination of ABA and PBO is effective at increasing marketable life of other ornamental plants, Viola plants (Violet) were used. All applications were made by spray to fully hydrated plants. Spray solutions were applied as soon as possible after mixing. All spray applications contained Tween 20 at 0.05% (v/v).

[7] = tested on: Impatiens plants; assay: Marketability (days marketable) of Impatiens plants after sprays
Experimental: as §1, §2
When the wilt incidence was less than 2.5, the treated plants were considered saleable. The duration of salability was determined for individual plants and the values averaged (Table 4).

[8] = drench 50 ppm, 0 hours after application
[9] = drench 50 ppm, 5 hours after application
[10] = drench 50 ppm, 24 hours after application
[11] = drench 50 ppm, 48 hours after application
[12] = drench 50 ppm, 72 hours after application
[13] = drench 50 ppm, 96 hours after application
[14] = spray 50 ppm, 0 hours after application
[15] = spray 50 ppm, 5 hours after application
[16] = spray 50 ppm, 24 hours after application
[17] = spray 50 ppm, 48 hours after application
[18] = spray 50 ppm, 72 hours after application
[19] = spray 50 ppm, 96 hours after application
[20] = spray PBO 1000 ppm + Tween 20 0.05%

CCCCOCCOCCOCc1cc2c(cc1CCC)OCO2 [PBO, piperonyl butoxide]
Percent Conductance (stomatal conductance, control = 100%) [1, 8]: 100.8%
Percent Conductance (stomatal conductance, control = 100%) [1, 9]: 84.0%
Percent Conductance (stomatal conductance, control = 100%) [1, 10]: 95.1%
Percent Conductance (stomatal conductance, control = 100%) [1, 11]: 97.7%
Percent Conductance (stomatal conductance, control = 100%) [1, 12]: 91.6%
Percent Conductance (stomatal conductance, control = 100%) [1, 13]: 101.5%
Percent Conductance (stomatal conductance, control = 100%) ([1]; drench 500 ppm, 0 hours after application): 100.4%
Percent Conductance (stomatal conductance, control = 100%) ([1]; drench 500 ppm, 5 hours after application): 86.8%
Percent Conductance (stomatal conductance, control = 100%) ([1]; drench 500 ppm, 24 hours after application): 89.8%
Percent Conductance (stomatal conductance, control = 100%) ([1]; drench 500 ppm, 48 hours after application): 96.9%
Percent Conductance (stomatal conductance, control = 100%) ([1]; drench 500 ppm, 72 hours after application): 100.2%
Percent Conductance (stomatal conductance, control = 100%) ([1]; drench 500 ppm, 96 hours after application): 93.1%
Days Marketable (Wilt index less than 2.5) ([2]; spray PBO 1.5 mg + Tween 20 0.05%): 5.8 days
Increase of the effect of ABA on stomatal conductance by addition of PBO ([3]; PBO 500 ppm added to ABA spray, 5 hours): 27%
Percent Conductance (stomatal conductance, control = 100%) [3, 14]: 101.8%
Percent Conductance (stomatal conductance, control = 100%) [3, 15]: 89.6%
Percent Conductance (stomatal conductance, control = 100%) [3, 16]: 100.7%
Percent Conductance (stomatal conductance, control = 100%) [3, 17]: 100.2%
Percent Conductance (stomatal conductance, control = 100%) [3, 18]: 90.2%
Percent Conductance (stomatal conductance, control = 100%) [3, 19]: 96.2%
Percent Conductance (stomatal conductance, control = 100%) ([3]; spray 500 ppm, 0 hours after application): 103.0%
Percent Conductance (stomatal conductance, control = 100%) ([3]; spray 500 ppm, 5 hours after application): 67.2%
Percent Conductance (stomatal conductance, control = 100%) ([3]; spray 500 ppm, 24 hours after application): 68.5%
Percent Conductance (stomatal conductance, control = 100%) ([3]; spray 500 ppm, 48 hours after application): 81.5%
Percent Conductance (stomatal conductance, control = 100%) ([3]; spray 500 ppm, 72 hours after application): 84.6%
Percent Conductance (stomatal conductance, control = 100%) ([3]; spray 500 ppm, 96 hours after application): 95.2%
Days Marketable (Wilt index less than 2.5) ([4]; Table 5, drench water, spray PBO 1000 ppm + Tween 20 0.05%): 6.69 days
Days Marketable (Wilt index less than 2.5) ([4]; Table 6, drench water, spray PBO 1000 ppm + Tween 20 0.05%): 6.5 days
Wilt Index (1 = no wilt; 4 = plants wilted, complete loss of turgor) ([5]; spray PBO 1000 ppm + Tween 20 0.05%, 0 days after spray): 1
Wilt Index (1 = no wilt; 4 = plants wilted, complete loss of turgor) ([5]; spray PBO 1000 ppm + Tween 20 0.05%, 4 days after spray): 1.13
Wilt Index (1 = no wilt; 4 = plants wilted, complete loss of turgor) ([5]; spray PBO 1000 ppm + Tween 20 0.05%, 5 days after spray): 1.34
Wilt Index (1 = no wilt; 4 = plants wilted, complete loss of turgor) ([5]; spray PBO 1000 ppm + Tween 20 0.05%, 6 days after spray): 1.83
Wilt Index (1 = no wilt; 4 = plants wilted, complete loss of turgor) ([5]; spray PBO 1000 ppm + Tween 20 0.05%, 7 days after spray): 2.25
Days Marketable (Wilt index less than 2.5) [6, 20]: 5.9 days
Days Marketable (Wilt index less than 2.5) [7, 20]: 6.6 days

S-(+)-abscisic acid [ABA]
Reduction of stomatal conductance ([1]; 5 hours post drench): 44%
Reduction of stomatal conductance ([1]; 24 hours post drench): 22.5%
Percent Conductance (stomatal conductance, control = 100%) [1, 8]: 100.3%
Percent Conductance (stomatal conductance, control = 100%) [1, 9]: 56.0%
Percent Conductance (stomatal conductance, control = 100%) [1, 10]: 77.5%
Percent Conductance (stomatal conductance, control = 100%) [1, 11]: 85.8%
Percent Conductance (stomatal conductance, control = 100%) [1, 12]: 83.9%
Percent Conductance (stomatal conductance, control = 100%) [1, 13]: 104.3%
Days Marketable (Wilt index less than 2.5) ([2]; spray ABA 7.5 mg + Tween 20 0.05%): 7.6 days
Decrease in stomatal conductance ([3]; ABA spray, 5 hours after spray application): 58.9%
Percent Conductance (stomatal conductance, control = 100%) [3, 14]: 101.1%
Percent Conductance (stomatal conductance, control = 100%) [3, 15]: 41.1%
Percent Conductance (stomatal conductance, control = 100%) [3, 16]: 86.2%
Percent Conductance (stomatal conductance, control = 100%) [3, 17]: 91.9%
Percent Conductance (stomatal conductance, control = 100%) [3, 18]: 102.0%
Percent Conductance (stomatal conductance, control = 100%) [3, 19]: 100.6%
Days Marketable (Wilt index less than 2.5) ([4]; Table 5, drench ABA 200 ppm, spray Tween 20 0.05%): 7.69 days
Days Marketable (Wilt index less than 2.5) ([4]; Table 6, drench ABA 50 ppm, spray Tween 20 0.05%): 6.5 days
Days Marketable (Wilt index less than 2.5) ([4]; Table 6, drench ABA 200 ppm, spray Tween 20 0.05%): 8.1 days
Wilt Index (1 = no wilt; 4 = plants wilted, complete loss of turgor) ([5]; spray ABA 200 ppm + Tween 20 0.05%, 0 days after spray): 1
Wilt Index (1 = no wilt; 4 = plants wilted, complete loss of turgor) ([5]; spray ABA 200 ppm + Tween 20 0.05%, 4 days after spray): 1.00
Wilt Index (1 = no wilt; 4 = plants wilted, complete loss of turgor) ([5]; spray ABA 200 ppm + Tween 20 0.05%, 5 days after spray): 1.27
Wilt Index (1 = no wilt; 4 = plants wilted, complete loss of turgor) ([5]; spray ABA 200 ppm + Tween 20 0.05%, 6 days after spray): 1.66
Wilt Index (1 = no wilt; 4 = plants wilted, complete loss of turgor) ([5]; spray ABA 200 ppm + Tween 20 0.05%, 7 days after spray): 2.31
Days Marketable (Wilt index less than 2.5) ([6]; spray ABA 100 ppm + Tween 20 0.05%): 8.0 days
Increase in shelf life without watering ([7]; ABA spray 200 ppm versus control spray): almost two day increase
Days Marketable (Wilt index less than 2.5) ([7]; spray ABA 200 ppm + Tween 20 0.05%): 7.5 days
